From ChEMBL document CHEMBL3352741, “Discovery of VU0431316: a negative allosteric modulator of mGlu5 with activity in a mouse model of anxiety” (Bioorg Med Chem Lett, 2014)
Calls of active or inactive are those of the source. The rule behind the calls is not given here.

Tests used:
[1] = target: Metabotropic glutamate receptor 5 (Rattus norvegicus) (UniProt P31424); assay: Negative allosteric modulator activity at rat mGlu5 expressed in HEK293A cells assessed as reduction in 100 uM glutamate-induced calcium mobilization at 30 uM; type: functional, cell-based; conditions: HEK293-A
Metabotropic glutamate receptor 5 (Rattus norvegicus), sequence (P31424 21-1203 limits assumed): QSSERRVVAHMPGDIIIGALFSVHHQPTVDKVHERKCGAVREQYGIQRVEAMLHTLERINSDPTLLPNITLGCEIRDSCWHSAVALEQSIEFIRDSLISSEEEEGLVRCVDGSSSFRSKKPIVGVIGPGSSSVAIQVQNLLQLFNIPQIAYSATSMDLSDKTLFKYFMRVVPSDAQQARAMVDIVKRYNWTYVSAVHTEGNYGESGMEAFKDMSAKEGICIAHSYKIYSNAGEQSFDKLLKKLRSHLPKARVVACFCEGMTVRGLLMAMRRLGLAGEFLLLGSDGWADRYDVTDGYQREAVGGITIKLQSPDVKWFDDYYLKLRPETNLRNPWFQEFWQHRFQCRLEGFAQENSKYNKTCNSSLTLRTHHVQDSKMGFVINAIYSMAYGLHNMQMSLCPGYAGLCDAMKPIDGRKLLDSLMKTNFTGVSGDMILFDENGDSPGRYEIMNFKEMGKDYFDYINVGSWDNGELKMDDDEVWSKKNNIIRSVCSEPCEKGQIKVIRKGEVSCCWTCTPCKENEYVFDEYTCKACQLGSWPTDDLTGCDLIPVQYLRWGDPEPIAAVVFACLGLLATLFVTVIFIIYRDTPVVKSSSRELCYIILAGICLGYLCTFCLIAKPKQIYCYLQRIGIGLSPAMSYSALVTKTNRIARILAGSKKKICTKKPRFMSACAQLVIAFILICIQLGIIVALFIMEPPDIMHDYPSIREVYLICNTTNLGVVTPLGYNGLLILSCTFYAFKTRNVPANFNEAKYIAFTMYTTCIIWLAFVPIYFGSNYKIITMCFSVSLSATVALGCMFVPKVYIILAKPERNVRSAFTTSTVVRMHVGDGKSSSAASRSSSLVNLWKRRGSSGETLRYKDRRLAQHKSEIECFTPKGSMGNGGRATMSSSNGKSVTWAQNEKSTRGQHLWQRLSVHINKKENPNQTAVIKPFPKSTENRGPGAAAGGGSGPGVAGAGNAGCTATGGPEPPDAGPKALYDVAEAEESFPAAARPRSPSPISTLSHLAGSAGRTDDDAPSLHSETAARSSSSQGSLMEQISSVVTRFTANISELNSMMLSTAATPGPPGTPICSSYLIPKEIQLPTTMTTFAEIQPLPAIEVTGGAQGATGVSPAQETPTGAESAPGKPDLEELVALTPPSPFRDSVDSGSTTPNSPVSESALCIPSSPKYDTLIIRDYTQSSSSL

[2] = target: T1, Metabotropic glutamate receptor 5 (Rattus norvegicus, UniProt P31424); assay: Negative allosteric modulator activity at rat mGlu5 expressed in HEK293A cells assessed as reduction in glutamate-induced calcium mobilization; type: functional, cell-based, HEK293-A
T1 sequence (P31424 whole entry): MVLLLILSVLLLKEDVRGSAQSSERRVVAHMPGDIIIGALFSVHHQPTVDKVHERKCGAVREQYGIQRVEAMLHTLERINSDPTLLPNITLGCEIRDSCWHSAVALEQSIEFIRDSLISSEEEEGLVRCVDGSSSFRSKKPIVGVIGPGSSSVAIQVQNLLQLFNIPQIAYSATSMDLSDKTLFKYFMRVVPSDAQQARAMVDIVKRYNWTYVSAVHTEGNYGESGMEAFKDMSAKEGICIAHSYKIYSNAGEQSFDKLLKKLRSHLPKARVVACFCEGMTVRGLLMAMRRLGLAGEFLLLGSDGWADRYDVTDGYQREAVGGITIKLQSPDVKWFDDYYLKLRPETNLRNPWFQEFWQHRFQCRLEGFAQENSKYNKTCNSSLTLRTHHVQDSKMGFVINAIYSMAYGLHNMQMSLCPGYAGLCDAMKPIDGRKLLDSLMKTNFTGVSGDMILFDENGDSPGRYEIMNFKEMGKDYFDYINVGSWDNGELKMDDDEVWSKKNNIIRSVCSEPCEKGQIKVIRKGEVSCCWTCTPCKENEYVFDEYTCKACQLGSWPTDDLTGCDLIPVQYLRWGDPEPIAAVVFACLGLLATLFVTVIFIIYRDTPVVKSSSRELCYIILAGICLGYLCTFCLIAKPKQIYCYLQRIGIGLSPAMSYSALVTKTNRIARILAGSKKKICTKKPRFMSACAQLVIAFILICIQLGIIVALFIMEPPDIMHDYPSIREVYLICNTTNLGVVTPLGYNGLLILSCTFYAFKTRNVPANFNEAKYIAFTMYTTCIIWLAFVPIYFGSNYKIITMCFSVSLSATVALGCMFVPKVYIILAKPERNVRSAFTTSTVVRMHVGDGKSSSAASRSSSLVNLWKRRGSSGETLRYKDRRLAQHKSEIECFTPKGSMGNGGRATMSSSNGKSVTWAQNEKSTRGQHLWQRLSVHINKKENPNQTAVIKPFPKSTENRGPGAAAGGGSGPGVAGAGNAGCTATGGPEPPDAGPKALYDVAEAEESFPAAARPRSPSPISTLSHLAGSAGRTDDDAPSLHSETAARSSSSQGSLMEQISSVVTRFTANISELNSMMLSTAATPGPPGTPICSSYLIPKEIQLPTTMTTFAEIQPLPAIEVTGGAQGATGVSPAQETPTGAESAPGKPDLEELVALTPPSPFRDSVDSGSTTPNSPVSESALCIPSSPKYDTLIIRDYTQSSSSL

[3] = target: Cytochrome P450 3A4 (Homo sapiens, UniProt P08684); assay: Inhibition of CYP3A4 in pooled human liver microsomes in presence of NADPH; type: ADME
[4] = Drug level in Harlan CD1 mouse brain at 30 mg/kg, ip after 60 mins; type: ADME, organism-based; design: dose 30 mg/kg, route intraperitoneal; conditions: read-out: Drug uptake
[5] = Drug level in Harlan CD1 mouse brain at 30 mg/kg, ip after 15 mins; type: ADME, organism-based; design: dose 30 mg/kg, route intraperitoneal; conditions: read-out: Drug uptake
[6] = target: Cytochrome P450 2C9 (Homo sapiens, UniProt P11712); assay: Inhibition of CYP2C9 in pooled human liver microsomes in presence of NADPH; type: ADME
Cytochrome P450 2C9, sequence (P11712 whole entry): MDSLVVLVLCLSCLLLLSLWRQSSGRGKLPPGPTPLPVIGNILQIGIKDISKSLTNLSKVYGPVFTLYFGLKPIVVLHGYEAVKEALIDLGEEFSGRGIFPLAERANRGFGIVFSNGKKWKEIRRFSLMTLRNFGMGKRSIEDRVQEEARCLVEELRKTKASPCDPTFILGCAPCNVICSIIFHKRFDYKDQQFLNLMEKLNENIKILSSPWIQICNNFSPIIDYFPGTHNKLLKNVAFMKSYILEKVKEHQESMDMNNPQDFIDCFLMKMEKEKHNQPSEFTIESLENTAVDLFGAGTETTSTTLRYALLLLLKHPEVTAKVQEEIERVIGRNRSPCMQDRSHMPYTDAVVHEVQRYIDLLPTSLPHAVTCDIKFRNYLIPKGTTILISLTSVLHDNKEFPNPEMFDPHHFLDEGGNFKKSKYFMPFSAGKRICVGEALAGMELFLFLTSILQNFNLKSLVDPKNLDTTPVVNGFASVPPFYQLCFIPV

[7] = Efflux ratio in human Caco2 cells; type: ADME, cell-based; conditions: caco-2
[8] = test system: MDCK; assay: Apparent permeability from apical to basolateral side in wild type MDCK cells; type: ADME, cell-based, Canis lupus familiaris; conditions: dog
[9] = AUC in Sprague-Dawley rat at 1 mg/kg, iv after 2 to 1440 mins by LC-MS/MS method; type: ADME, organism-based; design: dose 1 mg/kg, route intravenous; conditions: plasma
[10] = target: Metabotropic glutamate receptor 6 (Homo sapiens) (UniProt O15303); assay: Activity at mGlu6 (unknown origin) expressed in HEK293-GIRK cells at 10 uM by thallium flux assay; type: cell-based
[11] = target: Cytochrome P450 2D6 (Homo sapiens, UniProt P10635); assay: Inhibition of CYP2D6 in pooled human liver microsomes in presence of NADPH; type: ADME
[12] = target: Metabotropic glutamate receptor 8 (Homo sapiens) (UniProt O00222); assay: Activity at mGlu8 (unknown origin) expressed in HEK293-GIRK cells at 10 uM by thallium flux assay; type: cell-based
[13] = target: Metabotropic glutamate receptor 2 (Homo sapiens) (UniProt Q14416); assay: Activity at mGlu2 (unknown origin) expressed in HEK293-GIRK cells at 10 uM by thallium flux assay; type: cell-based
Metabotropic glutamate receptor 2 (Homo sapiens), sequence (Q14416 19-872 limits assumed): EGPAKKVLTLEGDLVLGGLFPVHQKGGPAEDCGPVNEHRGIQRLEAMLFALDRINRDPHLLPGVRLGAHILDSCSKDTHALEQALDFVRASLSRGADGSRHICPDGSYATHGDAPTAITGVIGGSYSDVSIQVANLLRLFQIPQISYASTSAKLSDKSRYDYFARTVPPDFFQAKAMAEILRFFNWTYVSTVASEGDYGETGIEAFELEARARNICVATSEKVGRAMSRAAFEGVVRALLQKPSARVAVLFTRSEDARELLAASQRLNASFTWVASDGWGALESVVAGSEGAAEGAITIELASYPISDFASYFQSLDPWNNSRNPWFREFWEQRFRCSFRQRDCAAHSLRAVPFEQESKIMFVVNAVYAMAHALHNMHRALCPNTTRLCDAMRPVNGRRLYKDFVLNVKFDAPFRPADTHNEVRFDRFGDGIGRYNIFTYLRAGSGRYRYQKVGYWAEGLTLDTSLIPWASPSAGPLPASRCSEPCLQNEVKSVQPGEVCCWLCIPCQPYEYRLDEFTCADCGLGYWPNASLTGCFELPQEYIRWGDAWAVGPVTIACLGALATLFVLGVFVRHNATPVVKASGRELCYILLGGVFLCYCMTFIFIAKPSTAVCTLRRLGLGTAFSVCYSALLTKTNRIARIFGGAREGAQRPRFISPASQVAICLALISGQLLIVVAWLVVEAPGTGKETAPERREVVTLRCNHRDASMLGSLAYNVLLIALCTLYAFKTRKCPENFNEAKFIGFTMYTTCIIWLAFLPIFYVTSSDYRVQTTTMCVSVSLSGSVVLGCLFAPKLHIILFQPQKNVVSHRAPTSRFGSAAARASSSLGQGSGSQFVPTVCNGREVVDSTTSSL

[14] = target: Metabotropic glutamate receptor 1 (Rattus norvegicus) (UniProt P23385); assay: Activity at rat mGlu1 expressed in HEK293 cells at 10 uM by calcium flux assay; type: functional, cell-based
[15] = target: Metabotropic glutamate receptor 3 (Homo sapiens) (UniProt Q14832); assay: Activity at mGlu3 (unknown origin) expressed in HEK293-GIRK cells at 10 uM by thallium flux assay; type: cell-based
[16] = Tmax in Sprague-Dawley rat at 10 mg/kg, po administered as single dose after 15 to 1440 mins by LC-MS/MS method; type: ADME, organism-based; design: dose 10 mg/kg, route oral; conditions: in vivo
[17] = Drug level in Sprague-Dawley rat hepatic portal vein at 10 mg/kg, po administered as single dose after 60 mins by LC-MS/MS method; type: ADME, organism-based; design: dose 10 mg/kg, route oral; conditions: read-out: Drug uptake
[18] = target: Metabotropic glutamate receptor 4 (Homo sapiens) (UniProt Q14833); assay: Activity at mGlu4 (unknown origin) expressed in HEK293-GIRK cells at 10 uM by thallium flux assay; type: cell-based
[19] = target: Metabotropic glutamate receptor 5 (Homo sapiens, UniProt P41594); assay: Negative allosteric modulator activity at human mGlu5 assessed as reduction in glutamate-induced calcium mobilization; type: functional
Metabotropic glutamate receptor 5 (Homo sapiens, UniProt P41594), sequence (P41594 whole entry): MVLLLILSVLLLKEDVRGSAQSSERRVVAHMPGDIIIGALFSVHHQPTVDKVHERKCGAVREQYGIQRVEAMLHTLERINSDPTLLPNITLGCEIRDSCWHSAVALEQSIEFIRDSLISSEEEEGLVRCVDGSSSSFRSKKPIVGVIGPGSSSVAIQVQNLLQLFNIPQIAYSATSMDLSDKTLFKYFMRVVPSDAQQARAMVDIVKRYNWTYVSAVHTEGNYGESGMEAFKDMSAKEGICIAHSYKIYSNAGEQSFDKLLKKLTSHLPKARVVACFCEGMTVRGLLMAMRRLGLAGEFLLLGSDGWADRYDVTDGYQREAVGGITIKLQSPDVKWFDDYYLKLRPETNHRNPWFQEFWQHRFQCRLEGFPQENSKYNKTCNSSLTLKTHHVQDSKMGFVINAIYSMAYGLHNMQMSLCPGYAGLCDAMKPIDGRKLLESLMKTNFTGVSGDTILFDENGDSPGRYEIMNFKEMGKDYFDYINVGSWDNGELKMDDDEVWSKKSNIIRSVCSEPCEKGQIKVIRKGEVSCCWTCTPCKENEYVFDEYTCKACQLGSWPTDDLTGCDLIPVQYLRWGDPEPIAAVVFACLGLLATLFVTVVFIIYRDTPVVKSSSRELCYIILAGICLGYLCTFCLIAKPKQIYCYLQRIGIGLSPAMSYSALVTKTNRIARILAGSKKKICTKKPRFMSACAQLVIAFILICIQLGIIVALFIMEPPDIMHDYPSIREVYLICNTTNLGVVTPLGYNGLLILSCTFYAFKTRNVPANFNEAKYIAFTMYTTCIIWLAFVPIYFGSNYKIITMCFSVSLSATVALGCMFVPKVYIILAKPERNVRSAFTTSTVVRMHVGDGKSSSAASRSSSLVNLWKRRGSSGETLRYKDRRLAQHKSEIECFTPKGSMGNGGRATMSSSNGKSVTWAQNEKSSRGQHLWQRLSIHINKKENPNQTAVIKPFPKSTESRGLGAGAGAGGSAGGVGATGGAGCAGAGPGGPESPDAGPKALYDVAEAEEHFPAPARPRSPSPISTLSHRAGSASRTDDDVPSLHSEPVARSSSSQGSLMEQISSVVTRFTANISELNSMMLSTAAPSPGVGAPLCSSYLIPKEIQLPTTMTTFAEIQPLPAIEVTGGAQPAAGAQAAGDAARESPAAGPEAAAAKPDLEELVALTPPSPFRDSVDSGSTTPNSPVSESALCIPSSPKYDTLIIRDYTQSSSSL

[20] = Oral bioavailability in Sprague-Dawley rat at 10 mg/kg administered as single dose after 15 to 1440 mins by LC-MS/MS method; type: ADME, organism-based; conditions: in vivo
[21] = Drug level in Harlan CD1 mouse brain at 30 mg/kg, ip after 30 mins; type: ADME, organism-based; design: dose 30 mg/kg, route intraperitoneal; conditions: read-out: Drug uptake
[22] = AUC in Sprague-Dawley rat at 10 mg/kg, po administered as single dose after 15 to 1440 mins by LC-MS/MS method; type: ADME, organism-based; design: dose 10 mg/kg, route oral; conditions: plasma
[23] = test system: Plasma; assay: Fraction unbound in rat plasma by equilibrium dialysis method; type: ADME, cell-free
[24] = test system: MDCK; assay: Apparent permeability from basolateral to apical side in wild type MDCK cells; type: ADME, cell-based, Canis lupus familiaris; conditions: dog
[25] = test system: Mus musculus; assay: In vivo mGlu5 negative allosteric modulator activity in Harlan CD1 mouse marble burying model of anxiety assessed as reduction in marble burying at => 10 mg/kg, ip dosed 15 mins before test; type: functional, organism-based; design: dose 10 mg/kg
[26] = test system: Plasma; assay: Fraction unbound in cynomolgus monkey plasma by equilibrium dialysis method; type: ADME, cell-free, Macaca fascicularis
[27] = target: Metabotropic glutamate receptor 7 (Homo sapiens) (UniProt Q14831); assay: Activity at mGlu7 (unknown origin) expressed in HEK293-GIRK cells at 10 uM by thallium flux assay; type: cell-based
[28] = Half life in Sprague-Dawley rat at 1 mg/kg, iv after 2 to 1440 mins by LC-MS/MS method; type: ADME, organism-based; design: dose 1 mg/kg, route intravenous; conditions: in vivo
[29] = Plasma concentration in Harlan CD1 mouse at 30 mg/kg, ip after 30 mins; type: ADME, organism-based; design: dose 30 mg/kg, route intraperitoneal
[30] = Ratio of drug level in brain to plasma in Sprague-Dawley rat at 10 mg/kg, po administered as single dose after 60 mins by LC-MS/MS method; type: ADME, organism-based; design: dose 10 mg/kg, route oral; conditions: read-out: BPR
[31] = Apparent permeability from apical to basolateral side in human Caco2 cells; type: ADME, cell-based; conditions: caco-2
[32] = target: T1, Metabotropic glutamate receptor 5; assay: Displacement of [3H]methoxyPEPy from rat mGlu5 expressed in HEK293A cells after 1 hr by scintillation counting method; type: cell-based, HEK293-A
[33] = Volume of distribution at steady state in Sprague-Dawley rat at 1 mg/kg, iv after 2 to 1440 mins by LC-MS/MS method; type: ADME, organism-based; design: dose 1 mg/kg, route intravenous; conditions: in vivo, read-out: Vdss
[34] = Plasma concentration in Sprague-Dawley rat at 10 mg/kg, po administered as single dose after 60 mins by LC-MS/MS method; type: ADME, organism-based; design: dose 10 mg/kg, route oral
[35] = test system: Brain; assay: Fraction unbound in mouse brain homogenates by equilibrium dialysis method; type: ADME, tissue-based; conditions: brain homogenate
[36] = Plasma concentration in Harlan CD1 mouse at 30 mg/kg, ip after 60 mins; type: ADME, organism-based; design: dose 30 mg/kg, route intraperitoneal
[37] = Cmax in Sprague-Dawley rat at 10 mg/kg, po administered as single dose after 15 to 1440 mins by LC-MS/MS method; type: ADME, organism-based; design: dose 10 mg/kg, route oral; conditions: in vivo
[38] = Clearance in Sprague-Dawley rat at 1 mg/kg, iv after 2 to 1440 mins by LC-MS/MS method; type: ADME, organism-based; design: dose 1 mg/kg, route intravenous; conditions: in vivo
[39] = target: T2, Cytochrome P450 1A2 (Homo sapiens, UniProt P05177); assay: Inhibition of CYP1A2 in pooled human liver microsomes in presence of NADPH; type: ADME
T2 sequence (P05177 whole entry): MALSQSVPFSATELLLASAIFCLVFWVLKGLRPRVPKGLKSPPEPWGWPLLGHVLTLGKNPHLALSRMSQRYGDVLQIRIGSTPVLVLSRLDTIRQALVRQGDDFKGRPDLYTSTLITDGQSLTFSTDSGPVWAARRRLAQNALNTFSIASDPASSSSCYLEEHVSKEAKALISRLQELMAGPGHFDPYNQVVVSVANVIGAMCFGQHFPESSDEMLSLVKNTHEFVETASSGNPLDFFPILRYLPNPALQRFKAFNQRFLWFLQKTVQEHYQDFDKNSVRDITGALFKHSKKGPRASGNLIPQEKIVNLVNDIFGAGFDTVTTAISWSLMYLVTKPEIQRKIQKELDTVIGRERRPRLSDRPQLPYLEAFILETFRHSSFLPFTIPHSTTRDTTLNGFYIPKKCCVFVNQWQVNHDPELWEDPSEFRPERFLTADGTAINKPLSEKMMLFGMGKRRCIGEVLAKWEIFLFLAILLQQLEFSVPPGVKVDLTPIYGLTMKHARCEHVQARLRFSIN

[40] = Apparent permeability from basolateral to apical side in human Caco2 cells; type: ADME, cell-based; conditions: caco-2
[41] = Drug level in Sprague-Dawley rat brain at 10 mg/kg, po administered as single dose after 60 mins by LC-MS/MS method; type: ADME, organism-based; design: dose 10 mg/kg, route oral; conditions: read-out: Drug uptake
[42] = test system: MDCK; assay: Efflux ratio in wild type MDCK cells; type: ADME, cell-based, Canis lupus familiaris; conditions: dog
[43] = Plasma concentration in Harlan CD1 mouse at 30 mg/kg, ip after 15 mins; type: ADME, organism-based; design: dose 30 mg/kg, route intraperitoneal
[44] = test system: Plasma; assay: Fraction unbound in human plasma by equilibrium dialysis method; type: ADME, cell-free

SMILES: N#Cc1cccc(C(=O)Nc2cncc(Oc3cncc(F)c3)n2)c1
- %max [1]: 1.2%
- IC50 [2]: 0.662 µM

SMILES: O=C(Nc1cncc(Oc2cncnc2)n1)c1cc(Cl)ccn1
- IC50 [3]: > 30 µM
- concentration at 1 h [4]: 2.8 µM
- concentration at 0.25 h [5]: 6.21 µM
- IC50 [6]: > 30 µM
- Ratio [7]: 1.07
- Papp [8]: 504 nm/s
- AUC [9]: 1.73 µM·h
- Activity [10]: inactive
- IC50 [11]: > 30 µM
- %max [1]: 1.6%
- Activity [12]: inactive
- Activity [13]: inactive
- Activity [14]: inactive
- Activity [15]: inactive
- Tmax [16]: 4 h
- concentration at 1 h [17]: 1.31 µM
- Activity [18]: inactive
- IC50 [19]: 0.085 µM
- bioavailability [20]: 48%
- concentration at 0.5 h [21]: 3.69 µM
- AUC [22]: 8.37 µM·h
- Fu [23]: 0.179
- Papp [24]: 450 nm/s
- Activity [25]: Active
- Fu [26]: 0.167
- Activity [27]: inactive
- half-life [28]: 3.22 h
- concentration at 0.5 h [29]: 3 µM
- Kp at 1 h [30]: 1.6
- Papp [31]: 668 nm/s
- Ki [32]: 0.037 µM
- Vd [33]: 2.7 L/kg
- concentration at 1 h [34]: 0.92 µM
- Fu [35]: 0.054
- concentration at 1 h [36]: 1.69 µM
- Cmax [37]: 1.12 µM
- clearance [38]: 1.81 L/h/kg
- IC50 [39]: 0.6 µM
- Papp [40]: 714 nm/s
- concentration at 1 h [41]: 1.45 µM
- Ratio [42]: 0.89
- concentration at 0.25 h [43]: 3.99 µM
- IC50 [2]: 0.0624 µM
- Fu [44]: 0.12

SMILES: N#Cc1cc(F)cc(C(=O)Nc2cncc(Oc3cncc(F)c3)n2)c1
- IC50 [2]: > 30 µM

SMILES: O=C(Nc1ccnc(Oc2cccnc2)c1)c1cccc(Cl)c1
- IC50 [2]: 3.7 µM

SMILES: Cc1ccnc(C(=O)Nc2cncc(Oc3cncnc3)n2)c1
- %max [1]: 2.1%
- IC50 [2]: 0.193 µM

SMILES: O=C(Nc1cncc(Oc2cncc(F)c2)n1)c1cc(F)cc(F)c1
- IC50 [2]: > 30 µM

SMILES: O=C(Nc1cncc(Oc2cncnc2)n1)c1cccc(F)c1
- %max [1]: 1.5%
- IC50 [2]: 5.14 µM

SMILES: O=C(Nc1cncc(Oc2cncc(F)c2)n1)c1cccc(Cl)c1
- %max [1]: 2%
- IC50 [2]: 0.118 µM

SMILES: O=C(Nc1cncc(Oc2cncc(F)c2)n1)c1cccc(Cl)n1
- IC50 [2]: > 30 µM

SMILES: O=C(Nc1cncc(Oc2cccnc2)n1)c1cccc(Cl)c1
- IC50 [2]: 0.129 µM

SMILES: Cc1csc(C(=O)Nc2cncc(Oc3cncc(F)c3)n2)n1
- %max [1]: 20%
- IC50 [2]: > 10 µM
